# Entries after “also recorded” stand apart in the source; their conditions may differ.
# Assays:
# [1] = Aqueous solubility at 37° C. (HPLC of filtered suspension); format: physicochemical; conditions: 37° C.; for peak solubility: at 1 hour
# Experimental: The solubility of novel crystalline forms of QTX125 was assessed in the following aqueous solutions: (i) phosphate buffer, pH 3.5, 0.9% w/v sodium chloride; (ii) phosphate buffer, pH 6.5, 0.9% w/v sodium chloride; (iii) acetate buffer, pH 4.5, 0.9% w/v sodium chloride; (iv) citro-phosphate buffer, pH 4.5, 0.9% w/v sodium chloride; (v) sodium chloride, 0.9% w/v and (vi) deionised water. All assays were completed at 37° C.
# In brief, 30 mg QTX125 was dispensed into vessels followed by 5 mL of the appropriate aqueous buffer. Mixtures were suspended by agitation and heated to 37° C. At various fixed intervals, an 0.4 mL aliquot of the suspension was removed, filtered and diluted for examination by HPLC. A single HPLC reference sample was used.
# [2] = Photostability at solid state (chemical purity by HPLC after illumination); format: physicochemical; conditions: for HPLC peak area, QTX125 RRT 1.00 / HPLC peak area, RRT 1.04 / HPLC peak area, RRT 1.12 / degradation (in words) / colour change of the solid material: solid-state; for degradation (in words): up to 171 hours
# Experimental: The method for determining purity by HPLC—used throughout these examples—used the following parameters:
# The photostability of novel crystalline forms of QTX125 was assessed at solid state and in solution. Where ‘forced illumination’ conditions were used, samples were illuminated at 12 Klux/hour and 2.8 UV W/m^2/hour. Samples were stored at a temperature of 30° C. Following incubation, the chemical purity of QTX125 was measured by HPLC.
# The following index is provided to aid navigation of the data presented in Tables 3.1.1 to 3.3.6: • 3.1.x—Assessment of the photostability of QTX125 Form 2. • 3.2.x—Assessment of the photostability of amorphous QTX125. • 3.3.x—Assessment of the photostability of the QTX125 1:2 L-Lysine adduct. • 3.x.1—Samples (at solid state) stored in unsealed clear glass bottles, subject to forced illumination. • 3.x.2—Samples (at solid state) sealed under nitrogen in clear glass bottles, subject to forced illumination. • 3.x.3—Samples (at solid state) sealed under nitrogen in amber glass bottles, illuminated under ambient laboratory conditions • 3.x.4—Samples (at solid state) sealed under nitrogen in amber glass bottles, subject to forced illumination. • 3.x.5—Samples (in solution) sealed under nitrogen in amber glass bottles, illuminated under ambient laboratory conditions. • 3.x.6—Samples (in solution) sealed under nitrogen in amber glass bottles, subject to forced illumination.
# [3] = sealed under nitrogen in amber glass bottles, ambient laboratory conditions, 0 hours
# [4] = sealed under nitrogen in amber glass bottles, ambient laboratory conditions, 3 hours
# [5] = sealed under nitrogen in amber glass bottles, ambient laboratory conditions, 50 hours
# [6] = sealed under nitrogen in amber glass bottles, ambient laboratory conditions, 171 hours
# [7] = sealed under nitrogen in amber glass bottles, forced illumination, 171 hours
# [8] = sealed under nitrogen in clear glass bottles, forced illumination
# [9] = sealed under nitrogen in clear glass bottles, forced illumination, 0 hours
# [10] = sealed under nitrogen in clear glass bottles, forced illumination, 3 hours
# [11] = sealed under nitrogen in clear glass bottles, forced illumination, 50 hours
# [12] = sealed under nitrogen in clear glass bottles, forced illumination, 171 hours
# [13] = unsealed clear glass bottles, forced illumination
# [14] = unsealed clear glass bottles, forced illumination, 0 hours
# [15] = unsealed clear glass bottles, forced illumination, 3 hours
# [16] = unsealed clear glass bottles, forced illumination, 50 hours
# [17] = unsealed clear glass bottles, forced illumination, 171 hours
smiles,measurement,setting,value
NCCCC[C@H](N)C(=O)O.NCCCC[C@H](N)C(=O)O.O=C(NO)c1ccc(CNC(=O)c2[nH]c(-c3ccc(O)cc3)cc2-c2ccoc2)cc1 [QTX125 1:2 L-Lysine adduct],solubility (in words),[1]; buffers (i) to (iv),very low
same,peak solubility,"[1]; deionised water (buffer vi), listed as 1:2 L-Lysine adduct",24.5 µg/mL
same,peak solubility,"[1]; deionised water (buffer vi), listed as adduct",24.5 µg/mL
same,peak solubility,"[1]; sodium chloride 0.9% w/v (buffer v), listed as 1:2 L-Lysine adduct",29.81 µg/mL
same,peak solubility,"[1]; sodium chloride 0.9% w/v (buffer v), listed as adduct",29.81 µg/mL
same,photostability as compared to amorphous QTX125,[2]; at solid state,enhanced photostability; also recorded: improved photostability
same,"HPLC peak area, QTX125 RRT 1.00",[2]; [3],96.83%
same,"HPLC peak area, RRT 1.04",[2]; [3],1.15%
same,"HPLC peak area, QTX125 RRT 1.00",[2]; [4],96.82%
same,"HPLC peak area, RRT 1.04",[2]; [4],1.21%
same,"HPLC peak area, QTX125 RRT 1.00",[2]; [5],97.84%
same,"HPLC peak area, RRT 1.04",[2]; [5],0.58%
same,"HPLC peak area, QTX125 RRT 1.00",[2]; [6],97.29%
same,"HPLC peak area, RRT 1.04",[2]; [6],1.30%
same,"HPLC peak area, RRT 1.12",[2]; [6],0.35%
same,degradation (in words),"[2]; sealed under nitrogen in amber glass bottles, ambient laboratory conditions",little evidence of degradation
same,"HPLC peak area, QTX125 RRT 1.00",[2]; [7],96.27%
same,"HPLC peak area, RRT 1.04",[2]; [7],1.74%
same,"HPLC peak area, RRT 1.12",[2]; [7],0.59%
same,degradation (in words),"[2]; sealed under nitrogen in amber glass bottles, forced illumination",degrades slightly
same,colour change of the solid material,[2]; [8],A change in the colour of the solid material was not identified
same,"HPLC peak area, QTX125 RRT 1.00",[2]; [9],96.83%
same,"HPLC peak area, RRT 1.04",[2]; [9],1.15%
same,"HPLC peak area, QTX125 RRT 1.00",[2]; [10],95.57%
same,"HPLC peak area, RRT 1.04",[2]; [10],1.90%
same,"HPLC peak area, RRT 1.12",[2]; [10],0.65%
same,"HPLC peak area, QTX125 RRT 1.00",[2]; [11],89.67%
same,"HPLC peak area, RRT 1.04",[2]; [11],5.79%
same,"HPLC peak area, RRT 1.12",[2]; [11],2.74%
same,"HPLC peak area, QTX125 RRT 1.00",[2]; [12],85.21%
same,"HPLC peak area, RRT 1.04",[2]; [12],9.04%
same,"HPLC peak area, RRT 1.12",[2]; [12],3.94%
same,degradation (in words),[2]; [8],degrades under forced illumination to two principal components
same,colour change of the solid material,[2]; [13],A change in the colour of the solid material was not identified
same,"HPLC peak area, QTX125 RRT 1.00",[2]; [14],96.83%
same,"HPLC peak area, RRT 1.04",[2]; [14],1.15%
same,"HPLC peak area, QTX125 RRT 1.00",[2]; [15],95.51%
same,"HPLC peak area, RRT 1.04",[2]; [15],1.98%
same,"HPLC peak area, QTX125 RRT 1.00",[2]; [16],88.96%
same,"HPLC peak area, RRT 1.04",[2]; [16],6.16%
same,"HPLC peak area, RRT 1.12",[2]; [16],3.08%
same,"HPLC peak area, QTX125 RRT 1.00",[2]; [17],84.14%
same,"HPLC peak area, RRT 1.04",[2]; [17],9.20%
same,"HPLC peak area, RRT 1.12",[2]; [17],4.38%
same,degradation (in words),[2]; [13],degrades under forced illumination to two principal components

# — patent US20260070895A1, “CRYSTALLINE FORMS” (QUIMATRYX, S.L., priority 2022, published 2026)
